# Test results from paper PMC8741257, “Identification of novel non-toxic and anti-angiogenic α-fluorinated chalcones as potent colchicine binding site inhibitors” (Journal of Enzyme Inhibition and Medicinal Chemistry, 2022).
# Read-outs that look alike come from different tables or passages of the source.
# What was measured:
# [1] = tested on: U937 (human leukaemia cells); experiment: Antiproliferative activity (CCK-8 assay); type: cell-based; details: U-937, mean ± SD, three separated experiments, 72 h
# Description: (§1) MCF-7, MGC-803, Hela and HepG-2 cell lines were cultured in a base medium (90% DMEM and 10% FBS), A549 and U937 were cultured in a base medium (90% PRMI-1640 and 10% FBS) at 37 °C, 5% CO2 and a saturated humidity atmosphere. All the mediums were supplemented with 10% FBS and 1% […]/streptomycin (all cells were purchased from Shanghai Institutes for Biological Sciences, Chinese Academy of Sciences, Shanghai, China).
# (§2) MGC-803 cells were collected and seeded into 96 well plates at a density of 8000/well. The mediums containing drugs and cell suspension were added into the well. The cells were incubated in 5% CO2 incubator at 37 °C for 72 h. Each well was added 10 µL CCK8 solution, and the incubation time was 3–4 h. The absorbance value at 450 nm was measured by microplate reader. Data are calculated with GraphPad Prism5 software.
# [2] = tested on: six human cancer cell lines (MCF-7, MGC-803, HepG2, Hela, A549, U937); experiment: Antiproliferative activity, summary over the tested cancer cell lines; type: cell-based
# Description: (§3) A549, MGC-803, MCF-7, HepG2 and Hela cells were seeded at the appropriate cell line density (3 × 10^3 to 4 × 10^3 cells/well). The cells were then incubated at 37 °C for 24 h in a humidified 5%CO2 in 96-well plates prior to experiments. After a further 72 h of incubation, cell proliferation was quantified with SRB ([…]) to determine the number of surviving cells. The absorbance at 560 nm was measured by microplate. The experiment was repeated three times, and the data were listed in the form of mean and standard deviation.
# as §2
# [3] = tested on: HepG2 (human liver cancer cells); experiment: Antiproliferative activity (SRB assay); type: cell-based; details: mean ± SD, three separated experiments, 72 h
# Description: as §1, §3
# [4] = tested on: Hela (human cervical cancer cells); experiment: Antiproliferative activity (SRB assay); type: cell-based; details: mean ± SD, three separated experiments, 72 h
# Description: as §1, §3
# [5] = tested on: A549 (human non-small cell lung cancer); experiment: Antiproliferative activity (SRB assay); type: cell-based; details: mean ± SD, three separated experiments, 72 h
# Description: as §1, §3
# [6] = tested on: MCF-7 (human breast cancer cells); experiment: Antiproliferative activity (SRB assay); type: cell-based; details: MCF7, mean ± SD, three separated experiments, 72 h
# Description: as §1, §3
# [7] = tested on: MGC-803 (human gastric cancer cells); experiment: Antiproliferative activity (SRB / CCK-8 assay); type: cell-based; details: mean ± SD
# Description: as §1, §3, §2
# [8] = tested on: THP-1-derived macrophages; experiment: Growth inhibition of normal human cells; type: cell-based; details: Macrophage, triplicate, mean ± SD
# Description: (§4) The effect of compound 4c on three types of normal human cell lines including LO2 (human hepatocyte cells), 293 T (human embryonic kidney cell) and THP-1-derived macrophages was then determined.
# [9] = tested on: 293 T (human embryonic kidney cell); experiment: Growth inhibition of normal human cells; type: cell-based; details: HEK-293T, triplicate, mean ± SD
# Description: as §4
# [10] = tested on: LO2 (human hepatocyte cells); experiment: Growth inhibition of normal human cells; type: cell-based; details: triplicate, mean ± SD
# Description: as §4
# [11] = tested cancer cell lines, read-out: IC50, anti-proliferative activity
# [12] = three separated experiments, 72 h
IC50 [1],"IC50 [2, 11]",IC50 [3],IC50 [4],IC50 [5],IC50 [6],melting point,"IC50 [7, 12]","IC50 ([2]; several tested cancer cell lines, range, read-out: IC50, inhibitory effect)",Structure (SMILES),IC50 [8],IC50 [9],IC50 [10],"IC50 ([7]; Table 2, triplicate)"
> 5000 nM,> 5000 nM,> 5000 nM,> 5000 nM,> 5000 nM,> 5000 nM,207.3 to 209.1 °C,> 5000 nM,–,"COC(=O)c1ccc2c(/C=C(\F)C(=O)c3cc(OC)c(OC)c(OC)c3)c[nH]c2c1 [4a, Methyl(Z)-3–(2-fluoro-3-oxo-3–(3,4,5-trimethoxyphenyl)prop-1-en-1-yl)-1H-indole-6-carboxylate]",–,–,–,–
562 ± 20 nM,–,883 ± 41 nM,685 ± 2 nM,3635 ± 1 nM,551 ± 22 nM,150.7 to 152.4 °C,202 ± 23 nM,–,"COc1cc(C(=O)/C(F)=C/c2c(-c3ccccc3)[nH]c3ccccc23)cc(OC)c1OC [4b, (Z)-2-fluoro-3–(2-phenyl-1H-indol-3-yl)-1–(3,4,5-trimethoxyphenyl)prop-2-en-1-one]",–,–,–,–
> 5000 nM,> 5000 nM,> 5000 nM,> 5000 nM,> 5000 nM,> 5000 nM,80.4 to 81.8 °C,> 5000 nM,–,"COC(=O)c1ccc2[nH]cc(/C=C(\F)C(=O)c3cc(OC)c(OC)c(OC)c3)c2c1 [4d, Methyl(Z)-3–(2-fluoro-3-oxo-3–(3,4,5-trimethoxyphenyl)prop-1-en-1-yl)-1H-indole-5-carboxylate]",–,–,–,–
123 ± 11 nM,–,1385 ± 1 nM,101 ± 31 nM,> 5000 nM,551 ± 14 nM,204 to 206.4 °C,72 ± 2 nM,–,"COc1cc(C(=O)/C(F)=C/c2c(C)[nH]c3ccccc23)cc(OC)c1OC [4e, (Z)-2-fluoro-3–(2-methyl-1H-indol-3-yl)-1–(3,4,5-trimethoxyphenyl)prop-2-en-1-one]",–,–,–,–
> 5000 nM,> 5000 nM,> 5000 nM,> 5000 nM,> 5000 nM,> 5000 nM,118 to 119 °C,> 5000 nM,–,"COC(=O)c1cccc2[nH]cc(/C=C(\F)C(=O)c3cc(OC)c(OC)c(OC)c3)c12 [4f, Methyl(Z)-3–(2-fluoro-3-oxo-3–(3,4,5-trimethoxyphenyl)prop-1-en-1-yl)-1H-indole-4-carboxylate]",–,–,–,–
456 ± 13 nM,–,199 ± 6 nM,72 ± 1 nM,505 ± 10 nM,121 ± 12 nM,118 to 119 °C,21 ± 7 nM,–,"COc1cc(C(=O)/C(F)=C/c2csc3ccccc23)cc(OC)c1OC [4g, (Z)-3-(benzo[b]thiophen-3-yl)-2-fluoro-1–(3,4,5-trimethoxyphenyl)prop-2-en-1-one]",–,–,–,–
606 ± 26 nM,–,5976 ± 4 nM,2493 ± 2 nM,2570 ± 159 nM,2101 ± 3 nM,122.2 to 123.6 °C,1897 ± 1 nM,–,"COc1cc(C(=O)/C(F)=C/c2cc3ccccc3s2)cc(OC)c1OC [4h, (Z)-3-(benzo[b]thiophen-2-yl)-2-fluoro-1–(3,4,5-trimethoxyphenyl)prop-2-en-1-one]",–,–,–,–
> 5000 nM,–,> 5000 nM,> 5000 nM,> 5000 nM,> 5000 nM,140.5 to 143.4 °C,> 5000 nM,–,"COc1cc(C(=O)/C(F)=C/c2sc3ccccc3c2C)cc(OC)c1OC [4i, (Z)-2-fluoro-3–(3-methylbenzo[b]thiophen-2-yl)-1–(3,4,5-trimethoxyphenyl)prop-2-en-1-one]",–,–,–,–
> 5000 nM,–,> 5000 nM,> 5000 nM,> 5000 nM,> 5000 nM,178.9 to 180.9 °C,> 5000 nM,–,"COc1cc(C(=O)/C(F)=C/c2nc3ccccc3[nH]2)cc(OC)c1OC [4j, (Z)-3-(1H-benzo[d]imidazol-2-yl)-2-fluoro-1–(3,4,5-trimethoxyphenyl)prop-2-en-1-one]",–,–,–,–
806 ± 24 nM,–,3298 ± 7 nM,565 ± 12 nM,> 5000 nM,441 ± 1 nM,148.1 to 149.1 °C,166 ± 4 nM,–,"COc1cc(C(=O)/C(F)=C/c2cccc3c2OCO3)cc(OC)c1OC [4k, (Z)-3-(benzo[d][1,3]dioxol-4-yl)-2-fluoro-1–(3,4,5-trimethoxyphenyl)prop-2-en-1-one]",–,–,–,–
> 5000 nM,–,> 5000 nM,> 5000 nM,> 5000 nM,> 5000 nM,156.3 to 157.8 °C,> 5000 nM,–,"COc1cc(C(=O)/C(F)=C/c2cc3c(cc2Br)OCO3)cc(OC)c1OC [4l, (Z)-3–(6-bromobenzo[d][1,3]dioxol-5-yl)-2-fluoro-1–(3,4,5-trimethoxyphenyl)prop-2-en-1-one]",–,–,–,–
710 ± 27 nM,–,1407 ± 14 nM,925 ± 7 nM,> 5000 nM,1002 ± 7 nM,94.1 to 94.2 °C,362 ± 123 nM,–,"COc1cc(C(=O)/C(F)=C/c2ccc3occc3c2)cc(OC)c1OC [4m, (Z)-3-(benzofuran-5-yl)-2-fluoro-1–(3,4,5-trimethoxyphenyl)prop-2-en-1-one]",–,–,–,–
31 ± 1 nM,–,116 ± 1 nM,42 ± 1 nM,364 ± 3 nM,128 ± 4 nM,100.8 to 103.7 °C,43 ± 1 nM,31 to 364 nM,"COc1cc(C(=O)/C(F)=C/c2ccc3c(c2)CCO3)cc(OC)c1OC [4n, (Z)-3–(2,3-dihydrobenzofuran-5-yl)-2-fluoro-1–(3,4,5-trimethoxyphenyl)prop-2-en-1-one]",–,–,–,–
> 5000 nM,–,> 5000 nM,> 5000 nM,> 5000 nM,4408 ± 43 nM,115.5 to 116.6 °C,3301 ± 26 nM,–,"COc1cc(C(=O)/C(F)=C/c2cc3ccccc3o2)cc(OC)c1OC [4o, (Z)-3-(benzofuran-2-yl)-2-fluoro-1–(3,4,5-trimethoxyphenyl)prop-2-en-1-one]",–,–,–,–
> 5000 nM,–,> 5000 nM,> 5000 nM,> 5000 nM,> 5000 nM,117.4 to 118.8 °C,> 5000 nM,–,"COc1cc(C(=O)/C(F)=C/c2oc3ccccc3c2C)cc(OC)c1OC [4p, (Z)-2-fluoro-3–(3-methylbenzofuran-2-yl)-1–(3,4,5-trimethoxyphenyl)prop-2-en-1-one]",–,–,–,–
> 5000 nM,–,> 5000 nM,> 5000 nM,> 5000 nM,> 5000 nM,114 to 116.4 °C,> 5000 nM,–,"COc1cc(C(=O)/C(F)=C/c2ccc3oc4ccccc4c3c2)cc(OC)c1OC [4q, (Z)-3-(dibenzo[b,d]furan-2-yl)-2-fluoro-1–(3,4,5-trimethoxyphenyl)prop-2-en-1-one]",–,–,–,–
> 5000 nM,–,> 5000 nM,> 5000 nM,> 5000 nM,> 5000 nM,174.7 to 176.6 °C,> 5000 nM,–,"COc1cc(C(=O)/C(F)=C/c2cc3c(cc2[N+](=O)[O-])OCO3)cc(OC)c1OC [4r, (Z)-2-fluoro-3–(6-nitrobenzo[d][1,3]dioxol-5-yl)-1–(3,4,5-trimethoxyphenyl)prop-2-en-1-one]",–,–,–,–
> 5000 nM,–,> 5000 nM,> 5000 nM,> 5000 nM,> 5000 nM,142.6 to 143.8 °C,> 5000 nM,–,"COc1cc(C(=O)/C(F)=C/c2ccc3sc4ccccc4c3c2)cc(OC)c1OC [4s, (Z)-3-(dibenzo[b, d]thiophen-2-yl)-2-fluoro-1–(3,4,5-trimethoxyphenyl)prop-2-en-1-one]",–,–,–,–

Structure (SMILES),IC50 [1],"IC50 [2, 11]",IC50 [3],IC50 [4],IC50 [5],IC50 [6],melting point,"IC50 [7, 12]","IC50 ([2]; several tested cancer cell lines, range, read-out: IC50, inhibitory effect)",IC50 [8],IC50 [9],IC50 [10],"IC50 ([7]; Table 2, triplicate)"
"COc1cc(C(=O)/C(F)=C/c2coc3ccccc23)cc(OC)c1OC [4t, (Z)-3-(benzofuran-3-yl)-2-fluoro-1–(3,4,5-trimethoxyphenyl)prop-2-en-1-one]",125 ± 2 nM,–,1063 ± 8 nM,203 ± 6 nM,1020 ± 64 nM,1293 ± 7 nM,103.7 to 104.8 °C,–,–,–,–,–,–
"COc1ccc(/C=C\c2cc(OC)c(OC)c(OC)c2)cc1O [CA-4, Combretastatin A4, reference compound]",0.3 nM,–,7 ± 1 nM,8 ± 1 nM,5 ± 1 nM,–,–,2 ± 1 nM,–,7 ± 1 nM,12 ± 2 nM,5 ± 1 nM,2 ± 1 nM
